The values that follow come from patent US20020006920A1, “Arylsulfonylamino hydroxamic acid derivatives” (priority 1999, published 2002).

As usually defined, the melting point is the temperature, or range, at which the solid turns liquid. As for `CC(C)(NS(=O)(=O)c1ccc(OCCC2CCCC2)cc1)C(=O)NO` [Example 12, 2-[4-(2-Cyclopentylethoxy)benzenesulfonylamino]-N-hydroxy-2-methyl-propionamide], the melting point lay in the range of 126 to 127 °C.
`CC(C)(NS(=O)(=O)c1ccc(-c2ccccn2)s1)C(=O)NO` [Example 13, N-Hydroxy-2-methyl-2-(5-pyridin-2-ylthiophene-2-sulfonylamino)propionamide]: the melting point lay within 165 to 166 °C.
Take `O=C(NO)C1(NS(=O)(=O)c2ccc(Oc3ccc(F)cc3)cc2)CC1` [Example 5, 1-[4-(4-Fluorophenoxy)benzenesulfonylamino]cyclopropane-1-carboxylic acid hydroxyamide]: the melting point is 184 °C.
Take `COc1ccc(S(=O)(=O)NC(C)(C)C(=O)NO)cc1` [Example 9, N-Hydroxy-2-(4-methoxybenzenesulfonylamino)-2-methylpropionamide]: the melting point fell in the range of 122 to 125 °C.
`O=C(NO)C1(NS(=O)(=O)c2ccc(Oc3ccc(F)cc3)cc2)CCCCC1` [Example 4, 1-[4-(4-Fluorophenoxy)benzenesulfonylamino]cyclohexane-1-carboxylic acid hydroxyamide]: the melting point is 174 °C.
Consider `CC(C)CCOc1ccc(S(=O)(=O)NC(C)(C)C(=O)NO)cc1` [Example 11, N-Hydroxy-2-methyl-2-[4-(3-methylbutoxy)benzenesulfonylamino]-propionamide], for which the melting point fell in the range of 126.5 to 128 °C.
